Source: publication PMC12486440, “Design, synthesis, and in silico studies of new benzofuran–pyrazole hybrids as multi-kinase inhibitors with potential antiproliferative activity” (RSC Advances, 2025)

Experiments:
HL-60(TB) = conditions: single dose 10 μM; leukemia
[1] = system: NCI 60 cancer cell line panel; experiment: NCI 60 full panel summary; conditions: single dose 10 μM; mean over the NCI 60 panel
CCRF-CEM = conditions: single dose 10 μM; leukemia
K-562 = conditions: single dose 10 μM; leukemia
MOLT-4 = conditions: single dose 10 μM; leukemia
RPMI-8226 = conditions: single dose 10 μM; leukemia
SR = conditions: single dose 10 μM; leukemia
EKVX = conditions: single dose 10 μM; non-small lung carcinoma
HOP-92 = conditions: single dose 10 μM; non-small lung carcinoma
NCI-H226 = conditions: single dose 10 μM; non-small lung carcinoma
NCI-H522 = conditions: single dose 10 μM; non-small lung carcinoma
HCT-15 = conditions: single dose 10 μM; colon cancer
HT29 = conditions: single dose 10 μM; colon cancer
SF-268 = conditions: single dose 10 μM; CNS cancer
SF-295 = conditions: single dose 10 μM; CNS cancer
SF-539 = conditions: single dose 10 μM; CNS cancer
SNB-19 = conditions: single dose 10 μM; CNS cancer
MALME-3M = conditions: single dose 10 μM; melanoma
M14 = conditions: single dose 10 μM; melanoma
SK-MEL-28 = conditions: single dose 10 μM; melanoma
SK-MEL-5 = conditions: single dose 10 μM; melanoma
UACC-257 = conditions: single dose 10 μM; melanoma
UACC-62 = conditions: single dose 10 μM; melanoma
OVCAR-5 = conditions: single dose 10 μM; ovarian carcinoma
786–0 = conditions: single dose 10 μM; renal carcinoma
A498 = conditions: single dose 10 μM; renal carcinoma
CAKI-1 = conditions: single dose 10 μM; renal carcinoma
RXF 393 = conditions: single dose 10 μM; renal carcinoma
SN12C = conditions: single dose 10 μM; renal carcinoma
TK-10 = conditions: single dose 10 μM; renal carcinoma
UO-31 = conditions: single dose 10 μM; renal carcinoma
PC-3 = conditions: single dose 10 μM; prostate carcinoma
MCF7 = conditions: single dose 10 μM; breast carcinoma
BT-549 = conditions: single dose 10 μM; breast carcinoma
T-47D = conditions: single dose 10 μM; breast carcinoma
A549/ATCC = conditions: single dose 10 μM; non-small lung carcinoma
NCI-H23 = conditions: single dose 10 μM; non-small lung carcinoma
KM12 = conditions: single dose 10 μM; colon cancer
SW-620 = conditions: single dose 10 μM; colon cancer
SNB-75 = conditions: single dose 10 μM; CNS cancer
MDA-MB-435 = conditions: single dose 10 μM; melanoma
OVCAR-4 = conditions: single dose 10 μM; ovarian carcinoma
MDA-MB-468 = conditions: single dose 10 μM; breast carcinoma

Row | Compound | GI% (HL-60(TB)) [%] | Mean GI% [1] [%] | GI% (K-562) [%] | GI% (MOLT-4) [%] | GI% (SR) [%] | GI% (EKVX) [%] | GI% (NCI-H522) [%] | GI% (SF-268) [%] | GI% (SF-295) [%] | GI% (SF-539) [%] | GI% (SNB-19) [%] | GI% (MALME-3M) [%] | GI% (M14) [%] | GI% (UACC-257) [%] | GI% (UACC-62) [%] | GI% (OVCAR-5) [%] | GI% (786–0) [%] | GI% (A498) [%] | GI% (CAKI-1) [%] | GI% (SN12C) [%] | other results
1 | CC(=O)N1N=C(c2nc3ccccc3[nH]2)CC1c1cn(-c2ccccc2)nc1-c1cc2ccccc2o1 (stereo not drawn) [4d, 1-(5-(3-(Benzofuran-2-yl)-1-phenyl-1H-pyrazol-4-yl)-3-(1H-benzo[d]imidazol-2-yl)-4,5-dihydropyrazol-1-yl)ethanone] | 5.44 | 1.26 | 2.81 | 5.60 | 18.72 | 5.61 | 1.70 | 1.38 | 9.71 | 0.68 | 4.75 | 5.76 | 2.74 | 1.22 | 2.82 | 6.06 | 4.06 | 5.12 | 7.51 | 6.54 | GI% (CCRF-CEM): 10.91%; GI% (RPMI-8226): 4.74%; GI% (HOP-92): 8.82%; GI% (NCI-H226): 3.03%; GI% (HCT-15): 1.38%; GI% (HT29): 0.62%; GI% (SK-MEL-28): 1.16%; GI% (SK-MEL-5): 0.87%; GI% (RXF 393): 2.67%; GI% (TK-10): 15.06%; GI% (UO-31): 13.92%; GI% (PC-3): 5.99%; GI% (MCF7): 5.40%; GI% (BT-549): 9.21%; GI% (T-47D): 18.84%
2 | 3-(5-(Benzofuran-2-yl)-1-phenyl-1H-pyrazol-3-yl)-1-phenylprop-2-en-1-one [2a] | 7.64 | 0.37 | 5.10 | 3.22 | 17.52 | 0.89 | 3.81 | 4.98 | 5.84 | 0.23 | 4.72 | 1.12 | 0.52 | 5.50 | 2.28 | 0.37 | 1.14 | 1.16 | 15.01 | 0.82 | GI% (A549/ATCC): 4.22%; GI% (NCI-H23): 1.16%; GI% (KM12): 1.62%; GI% (SW-620): 0.70%; GI% (SNB-75): 19.77%; GI% (MDA-MB-435): 0.51%; GI% (OVCAR-4): 1.64%; GI% (TK-10): 5.20%; GI% (UO-31): 7.39%; GI% (MCF7): 5.38%; GI% (MDA-MB-468): 0.19%
